From PubChem BioAssay (NCI)
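These data come from cells grown in 96-well plates and exposed to compound for 48 hours at five concentrations. GI50 is the concentration that inhibits growth by half. The concentration for full growth arrest is given as TGI.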

Columns and labels:
Assay in all cases: NCI-60 cell line screen, 48 h
HOP-92 NSCLC = test system: HOP-92 NSCLC
HCC-2998 colon = test system: HCC-2998 colon
U251 CNS = test system: U251 CNS
NCI/ADR-RES ovarian = test system: NCI/ADR-RES ovarian
SNB-19 CNS = test system: SNB-19 CNS
UACC-257 melanoma = test system: UACC-257 melanoma
NCI-H23 lung = test system: NCI-H23 lung
HCT-116 colon = test system: HCT-116 colon
NCI-H226 lung = test system: NCI-H226 lung
OVCAR-8 ovarian = test system: OVCAR-8 ovarian
SF-295 CNS = test system: SF-295 CNS
HL-60(TB) leukemia = test system: HL-60(TB) leukemia
NCI-H460 lung = test system: NCI-H460 lung
CAKI-1 renal = test system: CAKI-1 renal
A549 NSCLC = test system: A549 NSCLC
MDA-MB-435 = test system: MDA-MB-435
MDA-MB-231 breast = test system: MDA-MB-231 breast
CCRF-CEM leukemia = test system: CCRF-CEM leukemia
MCF7 breast = test system: MCF7 breast
IGROV1 ovarian = test system: IGROV1 ovarian
PC-3 prostate = test system: PC-3 prostate
KM12 colon = test system: KM12 colon
SF-539 CNS = test system: SF-539 CNS
HS 578T breast = test system: HS 578T breast
ACHN renal = test system: ACHN renal
HT29 colon = test system: HT29 colon
SW-620 colon = test system: SW-620 colon
SK-OV-3 ovarian = test system: SK-OV-3 ovarian
UACC-62 melanoma = test system: UACC-62 melanoma
SR leukemia = test system: SR leukemia
786-0 renal = test system: 786-0 renal
A498 renal = test system: A498 renal
RPMI-8226 leukemia = test system: RPMI-8226 leukemia
SN12C renal = test system: SN12C renal
EKVX NSCLC = test system: EKVX NSCLC
NCI-H522 lung = test system: NCI-H522 lung
TK-10 renal = test system: TK-10 renal
OVCAR-5 ovarian = test system: OVCAR-5 ovarian
BT-549 breast = test system: BT-549 breast
HCT-15 colon = test system: HCT-15 colon
T-47D breast = test system: T-47D breast
MOLT-4 leukemia = test system: MOLT-4 leukemia
SK-MEL-5 melanoma = test system: SK-MEL-5 melanoma
OVCAR-3 ovarian = test system: OVCAR-3 ovarian
LOX IMVI melanoma = test system: LOX IMVI melanoma
K-562 leukemia = test system: K-562 leukemia
SK-MEL-2 melanoma = test system: SK-MEL-2 melanoma
SNB-75 CNS = test system: SNB-75 CNS
COLO 205 colon = test system: COLO 205 colon
M14 melanoma = test system: M14 melanoma
OVCAR-4 ovarian = test system: OVCAR-4 ovarian
DU-145 prostate = test system: DU-145 prostate
UO-31 renal = test system: UO-31 renal
SK-MEL-28 melanoma = test system: SK-MEL-28 melanoma
RXF 393 renal = test system: RXF 393 renal
MALME-3M melanoma = test system: MALME-3M melanoma
HOP-62 NSCLC = test system: HOP-62 NSCLC
SF-268 CNS = test system: SF-268 CNS

Cc1nc2cc(-c3nn(C(C)C)c4ncnc(N)c34)ccc2o1
GI50 (HOP-92 NSCLC): 0.00196 µM | TGI (HOP-92 NSCLC): 0.0344 µM | GI50 (HCC-2998 colon): 0.0122 µM | TGI (HCC-2998 colon): > 10 µM | GI50 (U251 CNS): 0.0194 µM | TGI (U251 CNS): 2.35 µM | GI50 (NCI/ADR-RES ovarian): 0.0267 µM | TGI (NCI/ADR-RES ovarian): 0.537 µM | GI50 (SNB-19 CNS): 0.0412 µM | TGI (SNB-19 CNS): > 10 µM | GI50 (UACC-257 melanoma): 0.0111 µM | TGI (UACC-257 melanoma): 0.112 µM | GI50 (NCI-H23 lung): 0.0415 µM | TGI (NCI-H23 lung): > 7 µM | GI50 (HCT-116 colon): 0.035 µM | TGI (HCT-116 colon): > 10 µM | GI50 (NCI-H226 lung): 0.00505 µM | TGI (NCI-H226 lung): 0.191 µM | GI50 (OVCAR-8 ovarian): 0.0198 µM | TGI (OVCAR-8 ovarian): 0.431 µM | GI50 (SF-295 CNS): 0.00699 µM | TGI (SF-295 CNS): 0.0781 µM | GI50 (HL-60(TB) leukemia): 0.068 µM | TGI (HL-60(TB) leukemia): > 10 µM | GI50 (NCI-H460 lung): 0.00589 µM | TGI (NCI-H460 lung): > 10 µM | GI50 (CAKI-1 renal): 0.0049 µM | TGI (CAKI-1 renal): 0.0844 µM | GI50 (A549 NSCLC): 0.0127 µM | TGI (A549 NSCLC): 0.31 µM | GI50 (MDA-MB-435): 0.00854 µM | TGI (MDA-MB-435): 0.0982 µM | GI50 (MDA-MB-231 breast): 0.0116 µM | TGI (MDA-MB-231 breast): > 3.93 µM | GI50 (CCRF-CEM leukemia): 0.027 µM | TGI (CCRF-CEM leukemia): > 10 µM | GI50 (MCF7 breast): 0.00379 µM | TGI (MCF7 breast): > 10 µM | GI50 (IGROV1 ovarian): 0.00341 µM | TGI (IGROV1 ovarian): 0.0559 µM | GI50 (PC-3 prostate): 0.0065 µM | TGI (PC-3 prostate): 0.598 µM | GI50 (KM12 colon): 0.0172 µM | TGI (KM12 colon): 4.98 µM | GI50 (SF-539 CNS): 0.0227 µM | TGI (SF-539 CNS): 0.169 µM | GI50 (HS 578T breast): 0.00518 µM | TGI (HS 578T breast): 0.0473 µM | GI50 (ACHN renal): 0.0102 µM | TGI (ACHN renal): 1.22 µM | GI50 (HT29 colon): 0.0208 µM | TGI (HT29 colon): > 5.34 µM | GI50 (SW-620 colon): 0.0366 µM | TGI (SW-620 colon): > 10 µM | GI50 (SK-OV-3 ovarian): 0.00465 µM | TGI (SK-OV-3 ovarian): 0.0446 µM | GI50 (UACC-62 melanoma): 0.00393 µM | TGI (UACC-62 melanoma): 0.044 µM | GI50 (SR leukemia): 0.0168 µM | TGI (SR leukemia): 8.07 µM | GI50 (786-0 renal): 0.0136 µM | TGI (786-0 renal): 0.287 µM | GI50 (A498 renal): 0.00185 µM | TGI (A498 renal): 0.00689 µM | GI50 (RPMI-8226 leukemia): 0.00342 µM | TGI (RPMI-8226 leukemia): 0.385 µM | GI50 (SN12C renal): 0.00983 µM | TGI (SN12C renal): > 10 µM | GI50 (EKVX NSCLC): 0.0141 µM | TGI (EKVX NSCLC): 0.286 µM | GI50 (NCI-H522 lung): 0.00364 µM | TGI (NCI-H522 lung): 0.787 µM | GI50 (TK-10 renal): 0.00625 µM | TGI (TK-10 renal): 0.166 µM | GI50 (OVCAR-5 ovarian): 0.0149 µM | TGI (OVCAR-5 ovarian): 2.18 µM | GI50 (BT-549 breast): 0.00351 µM | TGI (BT-549 breast): 0.061 µM | GI50 (HCT-15 colon): 0.0126 µM | TGI (HCT-15 colon): > 6.08 µM | GI50 (T-47D breast): 0.00134 µM | TGI (T-47D breast): 0.0158 µM | GI50 (MOLT-4 leukemia): 0.0206 µM | TGI (MOLT-4 leukemia): > 3.5 µM | GI50 (SK-MEL-5 melanoma): 0.0158 µM | TGI (SK-MEL-5 melanoma): 0.103 µM | GI50 (OVCAR-3 ovarian): 0.0125 µM | TGI (OVCAR-3 ovarian): 0.627 µM | GI50 (LOX IMVI melanoma): 0.0141 µM | TGI (LOX IMVI melanoma): 0.66 µM | GI50 (K-562 leukemia): 0.0288 µM | TGI (K-562 leukemia): > 10 µM | GI50 (SK-MEL-2 melanoma): 0.0213 µM | TGI (SK-MEL-2 melanoma): 0.137 µM | GI50 (SNB-75 CNS): 0.00309 µM | TGI (SNB-75 CNS): 0.0391 µM | GI50 (COLO 205 colon): 0.0121 µM | TGI (COLO 205 colon): 0.87 µM | GI50 (M14 melanoma): 0.00973 µM | TGI (M14 melanoma): 1.21 µM | GI50 (OVCAR-4 ovarian): 0.00646 µM | TGI (OVCAR-4 ovarian): 0.097 µM | GI50 (DU-145 prostate): 0.0197 µM | TGI (DU-145 prostate): > 10 µM | GI50 (UO-31 renal): 0.00211 µM | TGI (UO-31 renal): 0.0611 µM | GI50 (SK-MEL-28 melanoma): 0.00662 µM | TGI (SK-MEL-28 melanoma): 0.125 µM | GI50 (RXF 393 renal): 0.00662 µM | TGI (RXF 393 renal): 0.104 µM | GI50 (MALME-3M melanoma): 0.00347 µM | TGI (MALME-3M melanoma): 0.0787 µM | GI50 (HOP-62 NSCLC): 0.0218 µM | TGI (HOP-62 NSCLC): 0.415 µM | GI50 (SF-268 CNS): 0.0143 µM | TGI (SF-268 CNS): 1.84 µM
